Measurements: patent publication US20080187508A1, “Treatment of Golmerular Basement Membrane Disease Involving Matrix Metalloproteinase-12” (BOYS TOWN NATIONAL RESEARCH HOSPITAL, priority 2004, published 2008)
“Also recorded” adds a separate entry of the source. Structures can show the parent of a compound that is named as a salt. Where two headings read alike, the source gives them in different places.

Tests used:
[1] = tested on: Alport mice; experiment: proteinuria by gel electrophoresis of urine of treated Alport mice; type: in vivo, mouse; conditions: for proteinuria: Alport mice treated from 4 to 7 weeks of age, MMI-270 50 μg/g I.P.; for progression of proteinuria: Alport mice treated from 6 to 7 weeks of age (advanced disease)
Method: Proteinuria was analyzed by gel electrophoresis. (A) One half microliter of urine from control mice (lane 2), MMI 270-treated normal control mice (lane 3), MMI 270-treated Alport mice (injected […] with 50 μg/g of NMI 270) (lane 4), and untreated Alport mice (lane 5) was fractionated on a 10% PAGE gel, stained with Coomassie blue, and destained. Molecular weight markers are shown in lane 1. […] Urine was collected and analyzed as in (A). Lane 1, 6 week old control; lane 2, 6 week old Alport; lane 3, 7 week old control; lanes 4 and 5, 7 week old Alport; lanes 6 and 7, 7 week old Alport treated with MMI-270 from 6 to 7 weeks of age. Molecular weight markers are shown in lane 1. The Alport mouse model has been described (Cosgrove et al. (1996) Genes Dev. 10, 2981-2992). The control mice used were normal for both collagen α3(IV) alleles, and are a product of double heterozygote crosses for the Alport mutation. The use of animals in this study was performed in accordance with an approved institutional IACUC protocol. Extreme care was taken to minimize pain and discomfort suffered by the mice. MMP inhibitors were administered between 4 and 7 weeks of age. All drugs were freshly prepared prior to administration. BAY 129566 was emulsified in suspension with 0.5% carboxymethyl cellulose and 4 mg given once a day by oral gavage. MMI-270 was solubilized in 0.9% saline and administered by I.P. injection (50 μg/g body weight) once a day. To assess the effect of these two compounds on Alport renal disease progression, Alport mice were administered either MMI 270 or BAY 129566 from 4 to 7 weeks of age. The animals were transcardially perfused with PBS and the kidneys harvested. Cryosections were analyzed by immunofluorescence microscopy to assess for the degree of glomerular and tubulointerstitial damage using antibodies specific for collagen IV α1 and α2 chains, and fibronectin.

[2] = molecular target: MMP-9 (Homo sapiens, UniProt P14780); conditions: hydrochloride monohydrate; cited from earlier work
[3] = tested on: wide range of MMPs; conditions: in vitro; cited from earlier work
[4] = tested on: Alport mice; experiment: transmission electron microscopy of glomerular basement membrane of treated Alport mice; type: in vivo, mouse; conditions: Alport mice treated with MMP inhibitor from 4 to 7 weeks of age, electron microscopy
Method: The Alport mouse model has been described (Cosgrove et al. (1996) Genes Dev. 10, 2981-2992). The control mice used were normal for both collagen α3(IV) alleles, and are a product of double heterozygote crosses for the Alport mutation. The use of animals in this study was performed in accordance with an approved institutional IACUC protocol. Extreme care was taken to minimize pain and discomfort suffered by the mice. MMP inhibitors were administered between 4 and 7 weeks of age. All drugs were freshly prepared prior to administration. BAY 129566 was emulsified in suspension with 0.5% carboxymethyl cellulose and 4 mg given once a day by oral gavage. MMI-270 was solubilized in 0.9% saline and administered by I.P. injection (50 μg/g body weight) once a day. Transmission electron microscopy was performed as previously described (Cosgrove et al., 1996, Genes Dev. 10, 2981-2992). Ultrastructural localization studies of type IV collagen were performed essentially as previously described (Bhattacharya et al., 2002). Kidneys from 7-week-old control and Alport mice were fixed by heart perfusion with 2% paraformaldehyde in PBS, and post-fixed in this same solution overnight. Ultrathin (70 nm) sections were reacted for 4 hours at room temperature with goat anti-collagen IV antibodies (Southern Biotechnology, Birmingham, Ala.). After six 10 minute washes in PBS, specimen were reacted for 2 hours at room temperature with 10 nanometers (nm) gold-conjugated anti-rabbit antibodies (Vector Laboratories, Burlingame, Calif.). Grids were washed as before, air-dried, counterstained with uranyl acetate, and examined using transmission electron microscopy. Propagermanium (3-oxygemylpropinic acid polymer, Sanwa Kagaku Kenkyusho Co., Nagoya, Japan) was administered orally (10 milligrams per kilogram (mg/kg) in 1% gelatin) by gavage once daily starting at 5 weeks of age, and kidneys harvested at 7 weeks of age. Three animals per group, Alport mice and control litter mates, gavaged with drug or vehicle only, were analyzed. […] Proteolytic degradation of the GBM in Alport syndrome might underlie the progressive irregular GBM damage and podocyte foot process effacement. Type IV collagen from Alport kidneys is more susceptible to proteolytic degradation in vitro than type IV collagen from healthy kidneys (Kalluri et al. (1997) J. Clin. Invest. 99, 2470-2478, presumably owing to the reduced number of interchain disulfide crosslinks (Gunwar et al. (1998) J. Biol. Chem. 273, 8767-8775).

[5] = molecular target: MMP-14 (Homo sapiens, UniProt P50281); conditions: hydrochloride monohydrate; cited from earlier work
[6] = molecular target: MMP-12 (Homo sapiens, UniProt P39900); conditions: cited from earlier work
[7] = molecular target: MMP-3 (Homo sapiens, UniProt P08254); conditions: hydrochloride monohydrate; cited from earlier work
[8] = molecular target: T1, MMP-2 (Homo sapiens, UniProt P08253); conditions: hydrochloride monohydrate; cited from earlier work
T1 sequence (P08253 110-660): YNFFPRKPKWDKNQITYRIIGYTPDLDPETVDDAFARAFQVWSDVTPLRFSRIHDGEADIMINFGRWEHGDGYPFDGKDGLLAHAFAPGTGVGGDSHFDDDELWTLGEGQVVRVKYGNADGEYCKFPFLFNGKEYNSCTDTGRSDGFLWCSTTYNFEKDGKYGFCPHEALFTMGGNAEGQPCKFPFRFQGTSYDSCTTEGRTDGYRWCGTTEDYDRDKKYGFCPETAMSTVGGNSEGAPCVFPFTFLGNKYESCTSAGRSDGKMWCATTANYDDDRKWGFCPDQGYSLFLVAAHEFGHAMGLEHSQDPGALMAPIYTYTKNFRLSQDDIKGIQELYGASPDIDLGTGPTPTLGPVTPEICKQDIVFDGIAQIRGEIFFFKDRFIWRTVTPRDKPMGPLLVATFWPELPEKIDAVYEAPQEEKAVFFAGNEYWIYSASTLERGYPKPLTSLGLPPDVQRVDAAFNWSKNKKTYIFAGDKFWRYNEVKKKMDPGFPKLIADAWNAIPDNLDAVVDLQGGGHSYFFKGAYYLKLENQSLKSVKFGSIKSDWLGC

[9] = listed as MMI-270, hydrochloride monohydrate
[10] = listed as NMI 270, hydrochloride monohydrate

Chain of MMP-12 (P39900 106-470, species assumed): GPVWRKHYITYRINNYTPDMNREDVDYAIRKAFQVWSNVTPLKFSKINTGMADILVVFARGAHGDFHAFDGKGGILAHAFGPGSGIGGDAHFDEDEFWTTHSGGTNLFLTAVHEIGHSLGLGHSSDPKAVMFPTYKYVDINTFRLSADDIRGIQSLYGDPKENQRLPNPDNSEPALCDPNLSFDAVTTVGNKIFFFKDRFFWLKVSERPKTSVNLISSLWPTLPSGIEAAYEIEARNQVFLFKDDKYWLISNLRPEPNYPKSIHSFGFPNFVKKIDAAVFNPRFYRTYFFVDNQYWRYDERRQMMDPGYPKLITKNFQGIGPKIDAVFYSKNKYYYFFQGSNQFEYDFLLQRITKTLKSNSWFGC
Chain of MMP-3 (P08254 100-477, species assumed): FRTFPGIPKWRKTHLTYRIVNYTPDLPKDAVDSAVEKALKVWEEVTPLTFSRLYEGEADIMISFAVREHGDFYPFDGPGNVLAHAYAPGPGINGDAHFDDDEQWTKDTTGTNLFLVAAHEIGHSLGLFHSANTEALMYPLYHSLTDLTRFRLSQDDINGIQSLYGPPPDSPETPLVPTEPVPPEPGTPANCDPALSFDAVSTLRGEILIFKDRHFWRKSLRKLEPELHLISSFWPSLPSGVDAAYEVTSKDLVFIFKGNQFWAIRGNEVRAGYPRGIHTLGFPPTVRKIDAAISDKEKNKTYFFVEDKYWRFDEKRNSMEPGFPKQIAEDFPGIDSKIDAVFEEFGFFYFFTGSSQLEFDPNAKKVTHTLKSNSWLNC
Chain of MMP-9 (P14780 94-707, species assumed): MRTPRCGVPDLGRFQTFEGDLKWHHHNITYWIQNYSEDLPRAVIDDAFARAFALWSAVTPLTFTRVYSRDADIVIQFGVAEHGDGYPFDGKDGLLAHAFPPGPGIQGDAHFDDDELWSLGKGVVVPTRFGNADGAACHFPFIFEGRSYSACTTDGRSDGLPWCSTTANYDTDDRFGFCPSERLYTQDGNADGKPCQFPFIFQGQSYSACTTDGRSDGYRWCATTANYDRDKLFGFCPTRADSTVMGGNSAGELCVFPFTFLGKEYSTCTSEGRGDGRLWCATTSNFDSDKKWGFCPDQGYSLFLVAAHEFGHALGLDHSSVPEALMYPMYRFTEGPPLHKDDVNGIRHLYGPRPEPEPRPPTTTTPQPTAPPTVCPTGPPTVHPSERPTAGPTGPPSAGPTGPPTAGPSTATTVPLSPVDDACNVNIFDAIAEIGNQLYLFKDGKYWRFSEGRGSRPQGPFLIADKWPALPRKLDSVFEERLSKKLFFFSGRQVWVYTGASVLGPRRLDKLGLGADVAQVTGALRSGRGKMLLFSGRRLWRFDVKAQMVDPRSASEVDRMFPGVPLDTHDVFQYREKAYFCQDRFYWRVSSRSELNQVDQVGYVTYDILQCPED

In the case of `COc1ccc(S(=O)(=O)N(Cc2cccnc2)[C@@H](C(=O)NO)C(C)C)cc1` [MMI 270, N-hydroxy-2(R)-[(4-methoxysulfonyl)(3-picolyl)amino]-3-methylbutaneamide hydrochloride monohydrate], the proteinuria ([1]; hydrochloride monohydrate) is reported as “arrests (and may reverse) progressive loss of glomerular function”, the proteinuria [1, 9] is reported as “dramatic reduction” and the proteinuria [1, 10] is reported as “drastically reduced”. For the same compound, the progression of proteinuria ([1]; hydrochloride monohydrate) was “arrests the progressive increase in proteinuria; also recorded: arrested”, the progression of proteinuria [1, 10] was “arrested” and the “MMP inhibitory effect, MMP-9” value [2] was “inhibits”. The “concentrations inhibiting activity of a wide range of MMPs” value [3] was “nM concentrations”, the “glomerular basement membrane architecture” value ([4]; hydrochloride monohydrate) was “near complete restoration of normal glomerular basement membrane architecture; also recorded: prevents or reverses GBM damage” and the “glomerular basement membrane architecture” value [4, 9] was “largely restored GBM ultrastructure and function; also recorded: markedly improved glomerular basement membrane architecture”. For the same compound, the “glomerular basement membrane architecture” value [4, 10] was “markedly improved GBM ultrastructure”, the “MMP inhibitory effect, MMP-14” value [5] was “inhibits” and the “MMP inhibitory effect, MMP-12” value ([6]; hydrochloride monohydrate) was “inhibits”. For the same compound, the “MMP inhibitory effect, MMP-12” value [6, 10] was “inhibits”, the “MMP inhibitory effect, MMP-3” value [7] was “inhibits” and the “MMP inhibitory effect, MMP-2” value [8] was “inhibits”.
